The results in this text go back to PMC12657724, “Structures of a lipin/Pah phosphatidic acid phosphatase in distinct catalytic states reveal a signature motif for substrate recognition” (The Journal of Biological Chemistry, 2025).

This assay has as its target T1, Tt Pah2 (WT, residues 1-321) (Tetrahymena thermophila, UniProt I7MFJ3).
T1 construct: gene TTHERM_00215970; residues 1-321, codon-optimised, N-terminal His-tag (pET28) kept, E. coli BL21(DE3) RIPL
T1 sequence (I7MFJ3 1-321): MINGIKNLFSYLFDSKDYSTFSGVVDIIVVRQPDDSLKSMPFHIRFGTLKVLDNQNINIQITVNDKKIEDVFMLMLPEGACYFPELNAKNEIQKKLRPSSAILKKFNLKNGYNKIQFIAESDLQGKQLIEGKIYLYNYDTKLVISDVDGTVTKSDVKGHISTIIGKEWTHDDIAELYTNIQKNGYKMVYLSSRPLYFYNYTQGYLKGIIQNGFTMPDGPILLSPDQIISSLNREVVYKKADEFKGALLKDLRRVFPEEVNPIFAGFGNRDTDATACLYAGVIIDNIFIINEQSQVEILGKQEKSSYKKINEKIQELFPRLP
The assay is described as follows: absorbance at […] nm (p-nitrophenol release). In kind it is biochemical. The settings on record: Mg2+, pH 8, ambient temperature, 56 μM enzyme; very slow turnover.

In the case of `O=[N+]([O-])c1ccc(OP(=O)(O)O)cc1` [pNPP], the “absorbance at 405 nm (p-nitrophenol release)” value is on record as “we were able to observe detectable pNPP hydrolysis, albeit at a low rate”.
